PubChem BioAssay (NCI)
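Results reflect a 48-hour exposure of cells in 96-well plates to compound at five concentrations. TGI: concentration producing complete growth inhibition.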

Assays:
Experiment in all cases: DTP human tumour cell line panel, 48 h
A549 NSCLC = test system: A549 NSCLC
BT-549 breast = test system: BT-549 breast
CAKI-1 renal = test system: CAKI-1 renal
HCC-2998 colon = test system: HCC-2998 colon
KM12 colon = test system: KM12 colon
NCI-H460 lung = test system: NCI-H460 lung
NCI/ADR-RES ovarian = test system: NCI/ADR-RES ovarian
OVCAR-4 ovarian = test system: OVCAR-4 ovarian
SF-268 CNS = test system: SF-268 CNS
TK-10 renal = test system: TK-10 renal

SMILES | TGI (A549 NSCLC) | TGI (BT-549 breast) | TGI (CAKI-1 renal) | TGI (HCC-2998 colon) | TGI (KM12 colon) | TGI (NCI-H460 lung) | TGI (NCI/ADR-RES ovarian) | TGI (OVCAR-4 ovarian) | TGI (SF-268 CNS) | TGI (TK-10 renal)
COc1cc(C2SCC(=O)N2c2ccc(Cl)cc2)cc(I)c1O (stereo not given) | > 100 µM | > 100 µM | > 100 µM | > 100 µM | > 100 µM | > 100 µM | > 100 µM | > 67.5 µM | > 100 µM | > 100 µM
Cc1ccc(/C=N/Nc2nncc3ccccc23)s1 | > 100 µM | > 100 µM | > 100 µM | > 100 µM | > 100 µM | > 100 µM | > 100 µM | > 93.1 µM | > 100 µM | > 100 µM
COc1cc2c(cc1OC)C(Cc1ccccc1CCCl)=NCC2 | > 100 µM | > 100 µM | > 100 µM | > 100 µM | > 100 µM | > 100 µM | > 100 µM | > 100 µM | > 100 µM | > 100 µM
O=C(OCC1CCCN2CCCCC12)c1ccncc1 (stereo not given) | > 100 µM | > 100 µM | > 100 µM | > 100 µM | > 100 µM | > 100 µM | > 100 µM | > 100 µM | > 100 µM | > 100 µM
CSc1ccc(/C=C2\N=C(c3ccccc3)N(c3nc4c(Cl)cc(Cl)cc4s3)C2=O)cc1 | 53.4 µM | 63.5 µM | > 100 µM | 94 µM | 88.6 µM | > 100 µM | 68.2 µM | 58.4 µM | 86.3 µM | > 100 µM
OCCN=C1c2ccccc2C2C(c3ccccc31)C1c3ccccc3C(=NCCO)c3ccccc3C21 (stereo not given) | 93 µM | 52.3 µM | 39.5 µM | 40.5 µM | 44 µM | 58.3 µM | 72.6 µM | 60.2 µM | > 100 µM | 79.5 µM
COc1cc(/C=C/C(=O)N[C@@H]2C(=O)N3[C@@H]2SC(C)(C)[C@@H]3C(=O)O)cc(OC)c1OC | > 100 µM | > 100 µM | > 100 µM | > 100 µM | > 100 µM | > 100 µM | > 100 µM | > 100 µM | > 100 µM | > 100 µM
O=C(N/N=C\c1ccc([N+](=O)[O-])cc1)c1ccccc1Nc1ccccc1C(=O)N/N=C/c1ccc([N+](=O)[O-])cc1 | > 100 µM | > 100 µM | > 100 µM | > 100 µM | > 100 µM | > 100 µM | > 100 µM | > 100 µM | > 100 µM | > 100 µM
O=CC1OC(=O)c2cc(O)c(O)c(O)c2-c2c(cc(O)c(O)c2O)C(=O)OC1C(O)C(O)CO (stereo not given) | > 100 µM | > 100 µM | 35.9 µM | > 100 µM | > 100 µM | > 100 µM | > 100 µM | 37.8 µM | > 100 µM | > 100 µM
CC12CC3(O)OC(O1)C1(COC(=O)c4ccccc4)C3CC21OC1OC(CO)C(O)C(O)C1O (stereo not given) | > 100 µM | > 100 µM | > 100 µM | > 100 µM | > 100 µM | > 100 µM | > 100 µM | > 100 µM | > 100 µM | > 100 µM
COc1cc(C(=O)Nc2c3ccccc3nc3ccccc23)cc(OC)c1OC | > 100 µM | > 100 µM | > 67 µM | > 100 µM | > 100 µM | > 100 µM | > 100 µM | > 100 µM | > 82 µM | > 100 µM
CN[C@@H](C)[C@H](OP(=O)(O)OC1[C@@H](O)[C@H](O)C(O)[C@H](O)[C@@H]1O)c1ccccc1 (stereo not given in full) | > 100 µM | > 100 µM | > 100 µM | > 100 µM | > 100 µM | > 100 µM | > 100 µM | > 100 µM | > 100 µM | > 100 µM
Cc1ccc(S(=O)(=O)/N=C(\[O-])C2=C(c3ccccc3)NN(C)c3nc4cccc[n+]4nc32)cc1 | > 100 µM | > 100 µM | > 100 µM | > 100 µM | > 100 µM | > 100 µM | > 100 µM | > 100 µM | > 100 µM | > 100 µM
CCN(CC)CCSc1nc2c(c(=N)n1-c1ccccc1)c(=S)n(-c1ccccc1)c(=S)n2-c1ccccc1 | 4.77 µM | 5.98 µM | 2.94 µM | 3.15 µM | 12.8 µM | 3.86 µM | 52.5 µM | 7.87 µM | 3.9 µM | 3.17 µM
Cc1ccc(O)c(-c2csc(NCN3CCN(CNc4nc(-c5cc(C)ccc5O)cs4)CC3)n2)c1 | > 100 µM | > 100 µM | > 100 µM | > 100 µM | > 100 µM | > 100 µM | > 100 µM | > 100 µM | > 100 µM | > 100 µM
O=c1[nH]c(Nc2cccc(Br)c2)nc2nc[nH]c12 | > 100 µM | > 100 µM | > 100 µM | > 100 µM | > 100 µM | > 100 µM | > 100 µM | > 100 µM | > 100 µM | > 100 µM
Nn1c(SCC(=O)NCc2ccccc2)nc2ccccc2c1=O | > 100 µM | > 100 µM | > 100 µM | > 100 µM | > 100 µM | > 100 µM | > 100 µM | > 100 µM | > 100 µM | > 100 µM
